{"source": "patent US20110086914A1", "about": "“Methods for Treating Traumatic Brain Injury” (priority 2009, published 2011)", "key": {"[1]": {"system": "diffuse axonal injury in rats (impact acceleration injury)", "test": "Impact acceleration injury model in rats: APP / active caspase-3 positive axons by immunohistochemistry", "assay_type": "in vivo, Sprague-Dawley rats", "conditions": "for APP positive axons: 30 days post injury, p<0.05 versus 148 in unsupplemented animals (sham 6)", "text": "(§1) Method. The impact acceleration injury model in rats described in Marmarou et al., J Neurosurg. 80:291-300 (1994), incorporated herein by reference, was used for the study. Four groups of ten (n=40) of adult male Sprague-Dawley rats were subjected to an impact acceleration injury resulting in reproducible severe traumatic brain injury. Rats weighing between 350 and 400 g received induction anesthesia and subsequently maintained on inhaled anesthetic using a modified medical anesthesia machine. The animals were shaved and prepared in sterile fashion for surgery, followed by subcutaneous injection of local anesthetic into the planned incision site. A 3 cm midline incision in the scalp was made, periosteal membranes separated, exposing bregma and lambda. A metal disk 10 mm in diameter and 3 mm thick was attached to the skull with cyanoacrylate and centered between bregma and lambda. The animal was placed prone on a foam bed with the metal disk directly under a plexiglas tube. A 450 g brass weight was dropped through the tube from a height of 2 meters striking the disk. The animal was then ventilated on 100% O2 while the skull inspected and the incision repaired. When the animal recovered spontaneous respirations, anesthesia was discontinued and the animal returned to its cage for postoperative observation (Marmarou et al., supra). All procedures involving live animals were approved by the Institutional Animal Care and Use Committee of West Virginia University, and were performed according to the principles of the Guide for the Care and Use of Laboratory Animals, published by the Institute of Laboratory Resources, National Research Council (NIH publication 85-23-2985).\n(§2) DHA supplementation and serum level monitoring. The four groups received dietary supplementation with DHA (Martek, Columbia, Md.). Two of the four groups received dietary supplementation DHA daily in the following amounts: Group 1, 10 mg/kg/day; Group 2, 40 mg/kg/day. Groups 3 served as an unsupplemented control, and Group 4 underwent sham injury and received no supplementation. Each group received rat chow ad lib and were housed in a small animal vivarium under veterinary staff supervision. Fatty acid blood testing was performed prior to the injury and at the end of the 30 days of DHA supplementation by analyzing the isolated serum phospholipids (including DHA, EPA and Arachidonic acid) from 50 microliter blood samples using a previously described method (Holub and Skeaff, Methods Enzymol. 141:234-44 (1987); Nutrasource Diagnostics, University of Guelph, Ontario, Canada).\nTissue Preparation and Immunohistochemical Labeling. Following 30 day post-injury, surviving animals were euthanized with a lethal dose injection of 0.5 ml Ketamine and 0.5 ml Xylazine. […]"}, "[2]": {"test": "Serum phospholipid fatty acid levels after DHA supplementation following brain trauma", "assay_type": "in vivo, Sprague-Dawley rats", "conditions": "for increased levels of serum DHA over initial levels: dietary, serum phospholipids", "experimental": "as §2"}, "[3]": {"test": "Tolerability of daily oral supplementation in the impact acceleration model", "assay_type": "in vivo", "conditions": "10 or 40 mg/kg/day", "text": "as §1, with “All procedures involving live animals were approved by the Institutional Animal Care and Use Committee of West Virginia University, and were performed according to the principles of the Guide for the Care and Use of Laboratory Animals, published by the Institute of Laboratory Resources, National Research Council (NIH publication 85-23-2985).” left out"}}}
{"smiles": "CC/C=C\\C/C=C\\C/C=C\\C/C=C\\C/C=C\\C/C=C\\CCC(=O)O", "note": "[DHA, (all-Z)-4,7,10,13,16,19-docosahexaenoic acid]", "values": [{"measurement": "APP positive axons", "setting": "[1]; 10 mg/kg/day DHA, corticospinal tract and medial lemnisci", "value": 26, "unit": "axons per mm^2"}, {"measurement": "APP positive axons", "setting": "[1]; 40 mg/kg/day DHA, corticospinal tract and medial lemnisci", "value": 20, "unit": "axons per mm^2"}, {"measurement": "APP labeling of axons, qualitative", "setting": "[1]; 10 or 40 mg/kg/day DHA, corticospinal tract and medial lemnisci", "value": "only rare APP positive axons, similar to sham injured animals"}, {"measurement": "active caspase-3 positive axons", "setting": "[1]; 10 or 40 mg/kg/day oral, 30 days following injury, data not shown", "value": "significant decrease"}, {"measurement": "decrease in AA:EPA ratio, a marker of inflammation", "setting": "[2]; 10 mg/kg/day DHA, 30 days after brain trauma, serum", "value": 72, "unit": "%"}, {"measurement": "increased levels of serum DHA over initial levels", "setting": "[2]; 10 mg/kg/day DHA, 30 days after brain trauma", "value": 123, "unit": "%"}, {"measurement": "increased levels of serum DHA over initial levels", "setting": "[2]; 40 mg/kg/day DHA, 30 days after brain trauma", "value": 176, "unit": "%"}, {"measurement": "total EPA and DHA in serum phospholipids compared to the sham animals", "setting": "[2]; end of supplementation period, 10 and 40 mg/kg/day", "value": "dose-response effect in the increase"}, {"measurement": "serum arachidonic acid levels", "setting": "[2]; supplemented animals, end of supplementation period", "value": "non-significant increase"}, {"measurement": "observed untoward effects of daily oral supplementation", "setting": "[3]", "value": "without any observed untoward effects"}]}
